From paper PMC4135079 (Journal of pharmacological and toxicological methods, 2013)
pIC50: −log10 of the molar value.

Key:
[1] = human Thorough-QT study; ref Gintant, 2011; cited from earlier work
hERG [2] = target: hERG (Homo sapiens, UniProt Q12809)
hERG [3] = details: read-out: hERG IC50; ref FDA pharmacology review (022068s000_PharmR_P1.pdf); cited from earlier work

hERG, sequence (Q12809 whole entry): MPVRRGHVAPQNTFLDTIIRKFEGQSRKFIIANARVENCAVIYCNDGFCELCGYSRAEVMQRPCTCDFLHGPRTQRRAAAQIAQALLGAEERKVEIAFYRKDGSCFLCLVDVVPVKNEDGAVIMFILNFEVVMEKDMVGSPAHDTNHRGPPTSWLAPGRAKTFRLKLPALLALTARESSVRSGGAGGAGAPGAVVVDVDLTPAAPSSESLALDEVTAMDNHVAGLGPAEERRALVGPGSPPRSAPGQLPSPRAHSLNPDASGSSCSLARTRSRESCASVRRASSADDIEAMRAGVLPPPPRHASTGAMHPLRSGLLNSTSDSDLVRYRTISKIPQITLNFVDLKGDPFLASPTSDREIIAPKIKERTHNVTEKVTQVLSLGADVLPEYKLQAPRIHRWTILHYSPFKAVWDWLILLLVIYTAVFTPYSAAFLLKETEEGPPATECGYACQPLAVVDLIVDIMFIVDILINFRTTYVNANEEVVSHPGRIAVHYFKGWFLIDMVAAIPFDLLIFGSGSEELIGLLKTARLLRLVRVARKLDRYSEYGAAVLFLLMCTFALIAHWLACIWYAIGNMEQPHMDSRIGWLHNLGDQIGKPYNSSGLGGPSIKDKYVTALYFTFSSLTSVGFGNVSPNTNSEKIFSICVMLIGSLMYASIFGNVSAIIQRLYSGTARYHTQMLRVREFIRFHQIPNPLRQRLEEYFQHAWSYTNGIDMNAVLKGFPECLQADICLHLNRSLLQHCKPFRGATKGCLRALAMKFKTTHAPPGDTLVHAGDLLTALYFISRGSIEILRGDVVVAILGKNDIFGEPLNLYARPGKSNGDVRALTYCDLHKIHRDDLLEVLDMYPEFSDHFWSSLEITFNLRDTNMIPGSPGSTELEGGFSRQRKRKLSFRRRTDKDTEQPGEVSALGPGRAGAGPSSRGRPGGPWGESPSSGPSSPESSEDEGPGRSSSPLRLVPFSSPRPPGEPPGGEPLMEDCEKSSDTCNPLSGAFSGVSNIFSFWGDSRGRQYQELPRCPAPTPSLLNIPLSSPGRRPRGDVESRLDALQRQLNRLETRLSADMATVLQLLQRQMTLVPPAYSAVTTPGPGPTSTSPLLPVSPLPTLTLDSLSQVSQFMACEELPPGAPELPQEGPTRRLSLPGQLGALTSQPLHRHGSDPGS

| SMILES | QTc prolongation observed in the TQT study [1] | Hill Log-logistic α (hERG [2]) | pIC50 (hERG [3]) |
| --- | --- | --- | --- |
| COc1cc2nc(N(C)CCCNC(=O)C3CCCO3)nc(N)c2cc1OC (centres unmarked) [Alfuzosin] | 7.7 ms | – | – |
| O=C(CCCN1CCC(O)(c2ccc(Cl)cc2)CC1)c1ccc(F)cc1 [Haloperidol] | – | 1.469 | – |
| Cc1cn(-c2cc(NC(=O)c3ccc(C)c(Nc4nccc(-c5cccnc5)n4)c3)cc(C(F)(F)F)c2)cn1 [Nilotinib] | 15.8 ms | – | […] |
| O=c1[nH]c2ccccc2n1C1CCN(CCCC(c2ccc(F)cc2)c2ccc(F)cc2)CC1 [Pimozide] | – | 1.586 | – |
